Test [1] deals with T1, Corticotropin-releasing factor receptor 2/Corticotropin-releasing factor-binding protein (Homo sapiens, UniProt P24387+Q13324).
T1 sequence (Q13324 whole entry): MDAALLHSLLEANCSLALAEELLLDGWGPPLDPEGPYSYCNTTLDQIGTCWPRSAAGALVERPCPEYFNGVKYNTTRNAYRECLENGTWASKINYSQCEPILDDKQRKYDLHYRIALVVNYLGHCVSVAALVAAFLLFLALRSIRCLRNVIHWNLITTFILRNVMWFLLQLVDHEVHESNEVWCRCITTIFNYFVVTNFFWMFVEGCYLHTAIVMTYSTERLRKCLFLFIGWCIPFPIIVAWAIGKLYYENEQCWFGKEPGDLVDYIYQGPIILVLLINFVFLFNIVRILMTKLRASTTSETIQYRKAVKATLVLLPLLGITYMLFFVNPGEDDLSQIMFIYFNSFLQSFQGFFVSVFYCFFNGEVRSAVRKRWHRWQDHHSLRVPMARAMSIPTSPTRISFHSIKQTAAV
T1 sequence (P24387 whole entry): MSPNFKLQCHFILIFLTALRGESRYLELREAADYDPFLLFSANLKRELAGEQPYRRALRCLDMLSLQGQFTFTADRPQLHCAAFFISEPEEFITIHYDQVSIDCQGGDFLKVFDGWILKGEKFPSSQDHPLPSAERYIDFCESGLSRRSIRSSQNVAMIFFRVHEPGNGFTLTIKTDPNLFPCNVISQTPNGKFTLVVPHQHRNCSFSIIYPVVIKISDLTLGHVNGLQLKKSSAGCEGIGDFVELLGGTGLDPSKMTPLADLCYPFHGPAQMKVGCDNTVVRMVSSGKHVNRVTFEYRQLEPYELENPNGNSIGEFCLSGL
Briefly: activators of CRF receptor 2 with binding protein – uHTS hits, confirmation (AID 602473). Particulars: read-out: EC50_Mean. It is filed as functional.

Test [2] concerns the target T2, Short transient receptor potential channel 4 (Mus musculus, UniProt Q9QUQ5).
T2 sequence (Q9QUQ5 whole entry): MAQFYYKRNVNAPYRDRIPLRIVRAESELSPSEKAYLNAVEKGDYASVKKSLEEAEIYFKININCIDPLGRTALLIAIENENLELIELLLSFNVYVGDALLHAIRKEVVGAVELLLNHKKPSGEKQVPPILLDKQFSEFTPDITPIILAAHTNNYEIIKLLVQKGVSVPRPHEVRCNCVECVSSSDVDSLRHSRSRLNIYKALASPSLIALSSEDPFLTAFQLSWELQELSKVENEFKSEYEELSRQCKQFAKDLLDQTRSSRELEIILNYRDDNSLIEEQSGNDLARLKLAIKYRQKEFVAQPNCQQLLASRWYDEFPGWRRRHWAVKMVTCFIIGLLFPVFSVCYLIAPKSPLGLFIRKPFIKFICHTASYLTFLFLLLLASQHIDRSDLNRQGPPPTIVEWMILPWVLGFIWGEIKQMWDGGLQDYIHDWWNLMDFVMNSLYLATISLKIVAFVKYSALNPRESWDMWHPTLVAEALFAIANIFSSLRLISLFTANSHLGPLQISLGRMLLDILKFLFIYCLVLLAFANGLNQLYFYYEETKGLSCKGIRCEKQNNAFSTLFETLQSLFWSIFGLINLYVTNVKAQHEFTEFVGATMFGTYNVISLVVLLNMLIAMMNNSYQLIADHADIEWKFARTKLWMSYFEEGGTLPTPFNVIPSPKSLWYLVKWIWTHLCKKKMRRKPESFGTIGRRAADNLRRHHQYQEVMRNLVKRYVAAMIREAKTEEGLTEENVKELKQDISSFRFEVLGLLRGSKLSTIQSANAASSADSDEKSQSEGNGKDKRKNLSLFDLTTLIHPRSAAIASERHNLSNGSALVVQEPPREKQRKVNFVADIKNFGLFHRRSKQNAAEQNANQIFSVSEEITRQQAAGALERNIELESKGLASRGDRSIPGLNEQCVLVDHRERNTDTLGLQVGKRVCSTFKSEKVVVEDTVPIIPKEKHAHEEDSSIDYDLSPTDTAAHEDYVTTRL
In words: calcium entry via TRPC4 opening agents – cell-based, HEK293 TRPC4/mu-opioid, Fluo-4 calcium, dose response (AID 434937). It is filed as functional.

The target in another test is Mu-type opioid receptor (Homo sapiens, UniProt P35372). Briefly: Counterscreen for agonists of heterodimerization of the mu 1 (OPRM1) and delta 1 (OPRD1) opioid receptors: Luminescence-based cell-based high throughput dose response assay to identify agonists of OPRM1 homodimerization. It is filed as functional. (In general: A counterscreen serves to expose hits that act by an unwanted route or on another target.);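 also: U2OS cells expressing OPRM1 and beta-arrestin as split beta-galactosidase partners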
Sequence of Mu-type opioid receptor (P35372 whole entry): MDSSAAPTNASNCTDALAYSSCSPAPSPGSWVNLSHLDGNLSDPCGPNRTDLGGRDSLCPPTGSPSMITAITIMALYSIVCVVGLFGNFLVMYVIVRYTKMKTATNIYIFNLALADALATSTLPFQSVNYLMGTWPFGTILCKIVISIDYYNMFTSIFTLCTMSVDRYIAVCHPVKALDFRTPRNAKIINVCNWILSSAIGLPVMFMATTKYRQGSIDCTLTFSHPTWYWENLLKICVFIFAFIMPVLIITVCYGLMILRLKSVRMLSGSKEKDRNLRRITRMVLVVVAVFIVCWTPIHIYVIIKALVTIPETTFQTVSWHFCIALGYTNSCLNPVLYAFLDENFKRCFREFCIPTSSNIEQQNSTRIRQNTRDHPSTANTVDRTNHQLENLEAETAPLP

In test [3] the target is Delta-type opioid receptor (Homo sapiens, UniProt P41143). Briefly: Counterscreen for agonists of heterodimerization of the mu 1 (OPRM1) and delta 1 (OPRD1) opioid receptors: Luminescence-based cell-based high throughput dose response assay to identify agonists of OPRD1 homodimerization. [Related pubchem assays (depositor defined):AID504326, AID504355, AID504692, AID504904, AID504905]. It is filed as functional.
Sequence of Delta-type opioid receptor (P41143 whole entry): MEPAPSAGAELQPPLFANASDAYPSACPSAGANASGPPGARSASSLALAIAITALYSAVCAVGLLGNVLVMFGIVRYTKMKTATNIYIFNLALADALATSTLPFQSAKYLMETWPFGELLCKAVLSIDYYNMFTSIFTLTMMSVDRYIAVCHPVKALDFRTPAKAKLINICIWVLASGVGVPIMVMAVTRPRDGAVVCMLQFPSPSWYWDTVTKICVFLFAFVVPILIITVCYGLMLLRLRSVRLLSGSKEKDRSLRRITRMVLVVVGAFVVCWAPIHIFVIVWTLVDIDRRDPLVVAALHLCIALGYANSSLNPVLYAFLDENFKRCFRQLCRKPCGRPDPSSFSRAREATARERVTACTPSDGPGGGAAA

The target of test [4] is 5-hydroxytryptamine receptor 5A (Homo sapiens, UniProt P47898). In words: Counterscreen for agonists of OPRM1-OPRD1 heterodimerization: luminescence-based cell-based high throughput dose response assay to identify agonists of 5-hydroxytryptamine (serotonin) 5A receptor (HTR5A). [Related pubchem assays (depositor defined):AID504326, AID504355, AID504692, AID504904, AID504905]. It is filed as functional.
Sequence of 5-hydroxytryptamine receptor 5A (P47898 whole entry): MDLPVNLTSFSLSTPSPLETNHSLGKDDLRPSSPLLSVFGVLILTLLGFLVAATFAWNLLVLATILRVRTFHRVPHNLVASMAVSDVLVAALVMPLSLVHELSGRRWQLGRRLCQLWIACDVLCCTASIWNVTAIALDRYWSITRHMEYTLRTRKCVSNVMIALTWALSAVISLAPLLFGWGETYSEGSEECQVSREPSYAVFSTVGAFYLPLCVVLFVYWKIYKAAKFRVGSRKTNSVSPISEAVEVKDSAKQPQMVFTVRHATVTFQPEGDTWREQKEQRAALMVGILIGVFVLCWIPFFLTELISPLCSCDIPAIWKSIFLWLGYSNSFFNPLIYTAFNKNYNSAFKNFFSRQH

The target of test [5] is T1, Corticotropin-releasing factor receptor 2/Corticotropin-releasing factor-binding protein. In words: Dose Response confirmation of uHTS hits for small molecule antagonists of the CRF-binding protein and CRF-R2 receptor complex. It is filed as functional. Particulars: read-out: IC50_Mean.
Test [6] has as its target T3, Sentrin-specific protease 7 (Homo sapiens, UniProt Q9BQF6).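 Also: Luminescence-based dose-response confirmation of ultra-high-throughput screening hits, measuring inhibition of SENP7.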
T3 sequence (Q9BQF6 whole entry): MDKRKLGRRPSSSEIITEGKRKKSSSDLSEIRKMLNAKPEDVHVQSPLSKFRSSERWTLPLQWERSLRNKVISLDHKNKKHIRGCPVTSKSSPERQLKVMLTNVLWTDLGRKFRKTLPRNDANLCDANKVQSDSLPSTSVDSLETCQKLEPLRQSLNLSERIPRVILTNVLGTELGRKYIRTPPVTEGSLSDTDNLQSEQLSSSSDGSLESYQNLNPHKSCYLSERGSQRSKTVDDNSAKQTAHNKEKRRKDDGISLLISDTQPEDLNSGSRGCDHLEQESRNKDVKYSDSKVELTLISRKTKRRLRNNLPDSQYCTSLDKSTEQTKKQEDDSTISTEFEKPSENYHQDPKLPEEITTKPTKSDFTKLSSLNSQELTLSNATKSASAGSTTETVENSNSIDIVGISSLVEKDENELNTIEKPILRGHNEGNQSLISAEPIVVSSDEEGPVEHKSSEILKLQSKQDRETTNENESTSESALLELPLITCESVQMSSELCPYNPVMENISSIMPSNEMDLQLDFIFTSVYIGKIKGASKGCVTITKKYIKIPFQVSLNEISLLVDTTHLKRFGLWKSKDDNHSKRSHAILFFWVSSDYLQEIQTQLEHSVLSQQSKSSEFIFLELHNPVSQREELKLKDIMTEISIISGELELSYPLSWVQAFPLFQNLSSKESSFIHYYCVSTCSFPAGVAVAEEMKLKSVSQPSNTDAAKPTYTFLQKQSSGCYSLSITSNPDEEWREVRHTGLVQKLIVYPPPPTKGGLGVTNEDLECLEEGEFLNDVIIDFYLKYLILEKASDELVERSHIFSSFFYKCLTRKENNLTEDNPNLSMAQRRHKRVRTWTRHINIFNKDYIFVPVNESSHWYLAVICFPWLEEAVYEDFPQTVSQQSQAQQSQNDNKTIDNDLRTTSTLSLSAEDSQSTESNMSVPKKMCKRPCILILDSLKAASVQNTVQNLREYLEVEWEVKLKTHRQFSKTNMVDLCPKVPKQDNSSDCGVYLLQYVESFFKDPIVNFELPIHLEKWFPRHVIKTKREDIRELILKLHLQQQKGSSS
It is filed as functional.

The target of test [7] is T4, Sentrin-specific protease 6 (Homo sapiens, UniProt Q9GZR1).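 Also: Luminescence-based dose-response confirmatory assay of SENP6 inhibition, following up an ultra-high-throughput screen.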
T4 sequence (Q9GZR1 whole entry): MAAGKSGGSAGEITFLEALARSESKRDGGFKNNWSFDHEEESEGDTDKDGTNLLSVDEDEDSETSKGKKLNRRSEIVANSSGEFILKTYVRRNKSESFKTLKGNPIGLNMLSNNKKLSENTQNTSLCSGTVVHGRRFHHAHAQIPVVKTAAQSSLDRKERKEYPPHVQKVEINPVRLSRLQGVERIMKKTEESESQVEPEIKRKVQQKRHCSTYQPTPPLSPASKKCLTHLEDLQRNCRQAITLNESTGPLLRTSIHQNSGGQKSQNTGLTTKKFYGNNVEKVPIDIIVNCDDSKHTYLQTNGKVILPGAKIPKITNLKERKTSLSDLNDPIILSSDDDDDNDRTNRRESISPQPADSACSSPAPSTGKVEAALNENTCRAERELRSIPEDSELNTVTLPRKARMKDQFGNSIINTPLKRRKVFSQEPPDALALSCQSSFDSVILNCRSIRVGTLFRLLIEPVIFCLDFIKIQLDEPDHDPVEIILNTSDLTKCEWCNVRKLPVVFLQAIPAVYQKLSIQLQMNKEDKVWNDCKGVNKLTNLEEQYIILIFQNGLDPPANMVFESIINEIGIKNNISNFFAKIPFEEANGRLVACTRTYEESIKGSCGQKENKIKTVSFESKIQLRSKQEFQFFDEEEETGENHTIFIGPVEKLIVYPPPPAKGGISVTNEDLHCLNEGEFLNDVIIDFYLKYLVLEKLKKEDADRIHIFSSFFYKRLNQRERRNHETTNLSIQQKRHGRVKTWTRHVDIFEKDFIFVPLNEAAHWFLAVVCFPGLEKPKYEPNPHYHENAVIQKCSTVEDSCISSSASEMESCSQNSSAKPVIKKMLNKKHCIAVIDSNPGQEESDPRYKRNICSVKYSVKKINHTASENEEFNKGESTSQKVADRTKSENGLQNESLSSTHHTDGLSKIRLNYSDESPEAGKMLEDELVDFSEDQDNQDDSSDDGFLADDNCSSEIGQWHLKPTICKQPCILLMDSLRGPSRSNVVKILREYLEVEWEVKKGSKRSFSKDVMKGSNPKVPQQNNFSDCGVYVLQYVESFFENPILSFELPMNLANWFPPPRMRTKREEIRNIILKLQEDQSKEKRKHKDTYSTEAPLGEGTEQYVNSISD
It is filed as functional.

The next test has as its target T5, Caspase-3 (Homo sapiens, UniProt P42574).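 Also: Dose-response selectivity test against caspase-3 for candidate inhibitors of sentrin-specific proteases (SENPs).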
T5 sequence (P42574 whole entry): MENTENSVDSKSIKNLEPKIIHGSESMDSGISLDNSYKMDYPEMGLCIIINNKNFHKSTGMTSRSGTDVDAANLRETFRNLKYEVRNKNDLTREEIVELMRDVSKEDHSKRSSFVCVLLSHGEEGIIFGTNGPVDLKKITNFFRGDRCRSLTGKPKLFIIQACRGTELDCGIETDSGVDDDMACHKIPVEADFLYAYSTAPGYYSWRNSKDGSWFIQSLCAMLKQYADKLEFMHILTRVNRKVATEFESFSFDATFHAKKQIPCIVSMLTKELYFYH
It is filed as functional.

Test [8] deals with T6, Sentrin-specific protease 8 (Homo sapiens, UniProt Q96LD8).
T6 sequence (Q96LD8 whole entry): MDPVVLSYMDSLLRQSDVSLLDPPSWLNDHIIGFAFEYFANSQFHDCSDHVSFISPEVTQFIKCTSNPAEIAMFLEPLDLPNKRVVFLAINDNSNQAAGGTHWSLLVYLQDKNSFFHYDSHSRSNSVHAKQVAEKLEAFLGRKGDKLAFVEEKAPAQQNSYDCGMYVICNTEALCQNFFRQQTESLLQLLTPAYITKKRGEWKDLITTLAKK
It is filed as functional.

A short description of test [9]: viability of uninfected HEp-2 cells – cell-based, HTS, cytotoxicity control for RSV inhibitor project, dose response (AID 2410). It is filed as functional. Particulars: human respiratory syncytial virus.
The target of the next test is Cytochrome P450 3A4 (Homo sapiens, UniProt P08684).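 Also: CYP3A4 tested as one member of a cytochrome P450 panel screen.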
Sequence of Cytochrome P450 3A4 (P08684 whole entry): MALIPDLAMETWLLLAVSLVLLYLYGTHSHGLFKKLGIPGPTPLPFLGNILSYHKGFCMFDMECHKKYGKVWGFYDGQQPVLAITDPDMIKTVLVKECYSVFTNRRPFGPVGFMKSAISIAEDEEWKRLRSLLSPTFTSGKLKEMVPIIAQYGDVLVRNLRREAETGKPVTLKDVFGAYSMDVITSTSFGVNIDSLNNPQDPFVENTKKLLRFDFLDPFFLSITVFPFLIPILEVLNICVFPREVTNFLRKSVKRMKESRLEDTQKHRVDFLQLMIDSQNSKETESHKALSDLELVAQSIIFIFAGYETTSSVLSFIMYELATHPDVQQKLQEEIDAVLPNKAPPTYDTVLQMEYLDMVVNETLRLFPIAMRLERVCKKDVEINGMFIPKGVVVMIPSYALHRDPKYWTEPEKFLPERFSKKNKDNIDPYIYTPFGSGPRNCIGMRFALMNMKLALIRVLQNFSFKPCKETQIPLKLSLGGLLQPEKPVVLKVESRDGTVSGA

Activity calls are given as the source filed them.

Data on 5 compounds can be found in ChEMBL document CHEMBL1201862, “PubChem BioAssay data set” (2004).

On to `COc1ccc(-c2nn(-c3ccccc3C)cc2CNCc2cccnc2)cc1F`, for which the EC50 in test [1] is > 53 µM (inactive); in [2] it was 3.76 µM (active); at Mu-type opioid receptor, > 92.5 µM (inactive); in [3], > 92.5 µM (inactive); in test [4] it was > 92.5 µM (inactive). For the same compound, in test [5], the IC50 was > 47.1 µM (inactive).
For `CC(C)CSC1=NSC2=NC(=O)/C(=C\c3cccs3)C(=N)N12`, the IC50 is 24.2 µM (active) in [6], 14.9 µM (active) in test [7], 26.8 µM (active) at Caspase-3 and 18.5 µM (active) in test [8].
In the same order, the values of `Oc1c(-c2cc(-c3ccco3)[nH]n2)ccc2ccccc12` are 4.87 µM (active), 15 µM (active), 59.7 µM (active) and 19.3 µM (active).
As for `O=C(COc1ccc2ccccc2c1)Nc1ccccc1C(=O)O`, the IC50 in [6] was 13.4 µM (active); in test [7], 25.5 µM (active); on Caspase-3, 15.2 µM (active); in “cells”, 41.5 µM (active); in test [8], 43.4 µM (active). Moreover, the CC50 in test [9] is 32.9 µM (active).
On to `C/C(=N\NC(=O)c1ccc(Br)cc1)c1ccccc1`, for which the IC50 is 4.62 µM (active) in test [6], 6.55 µM (active) in test [7], 4.06 µM (active) on Caspase-3 and > 100 µM (inactive) in test [8]. In addition, on Cytochrome P450 3A4, the AC50 was 15.8 µM (inconclusive).

As usually defined, the CC50 is the concentration at which the toxic effect on the cells reaches its halfway point. In general, AC50 refers to the midpoint of the concentration-response curve, whichever way the signal moves.
